Assay results published in patent US5250673A, “2'-deoxy-5-substituted uridine derivatives” (priority 1983, dated 1993).
Where two headings read alike, the source gives them in different places.

Key:
Assay type in all cases: in vivo, mouse
Sarcoma 180 [1] = assay: antitumor activity: 50% inhibition of tumor enhancement, Sarcoma 180 transplanted in mice; conditions: oral, once a day, 7 days, male ICR/JCL mice, tumor weight day 10
Experimental: (a) Method for determining of antitumor activity value
5×10^6 Cells of mouse-transplantable tumor Sarcoma 180 were transplanted to each male ICR/JCL-strain mouse (having a weight of 27 to 30 g) subcutaneously at the back. Each test compound dissolved or suspended in 0.1% Tween 80^(*) - 0.5% CMC solution was orally administered to various test groups each consisting of 7 mice once a day for 7 consecutive days from the next day of tumor transplanting, in an amount of 1.0 ml of solution or suspension per 100 g weight per day. As to a control group, the same Tween 80-CMC solution containing no test compound was orally administered once a day for 7 consecutive days in an amount of 1.0 ml per 100 g weight per day. (*) (A trademark for a series of surface which is a polyoxyethylene derivative of fatty acid partial ester of sorbitol anhydride, manufactured by I.C.I. U.S., Inc.)
On the tenth day from the tumor transplanting, an average tumor weight for each administration level of each test compound was determined. This weight was compared with an average tumor weight in control group, and the ratio of tumor enhancement inhibition at each administration level of each test compound compared with control group was calculated. From these calculations, the administration level of each test compound at which the ratio of tumor enhancement inhibition become 50% was obtained and the level (amount) was taken as the antitumor activity value of each compound.

Sarcoma 180 [2] = assay: calculation of therapeutic index (B)/(A), Sarcoma 180 mice; parameters: key: C = toxicity value (B) / antitumor activity value (A); conditions: oral, once a day, 7 days
Experimental: (c) Calculation of therapeutic index
By the use of the antitumor activity value (hereinafter referred to as A) and the toxicity value (hereinafter referred to as B) of each compound, which were obtained in the above items (a) and (b), respectively, therapeutic index (hereinafter referred to as C) was calculated in accordance with the following equation.
Therapeutic index (C)=^(B)(A)

[3] = toxicity value: 50% inhibition of weight increase of test animal (Sarcoma 180 tumor-transplanted mice); conditions: mouse, sarcoma 180 bearing mice, oral, once a day, 7 days, male ICR/JCL mice, read-out: Toxicity value (B) Administration amount of test compound at which weight increase of test animal is inhibited by 50% compared with that of control group
Experimental: (b) Method for determining toxicity value
Hitherto, toxicity values of anti-malignant tumor agents have been calculated on the bases of LD50 of test animals, in most cases. […] Therefore, in the present test, accumulated toxicity, which well represents the toxicity of anti-malignant tumor agents, was focused on and, as an indication for sensitive detection of the accumulated toxicity, inhibition of weight increase of test animal was measured. That is, when antitumor activity value was determined in the above item (a), the weight of each mouse of each test groups for each test compounds was measured daily from the day of tumor transplanting, immediately before administration.
On the day of tumor weight measurement, the average net weight increase of each mouse of each test groups for each test compounds from the day of tumor transplanting was measured. These increases were compared with the average net weight increase of control group and the ratio of net weight increase of each test groups of each test compounds to that of control group was calculated. From these calculations, there was obtained an addition amount of each test compound at which weight increase is inhibited by 50% compared with that of control group, and that amount was taken as a toxicity value of each compound.

SMILES | Antitumor activity value (A) Administration amount of test compound at which tumor enhancement is inhibited by 50% compared with that of control group (Sarcoma 180 [1]; Table 1-a) [mg/kg/day] | Therapeutic index (C) = (B)/(A) (Sarcoma 180 [2]; Table 1-a) | TD50 at 240 h ([3]; Table 1-a) [mg/kg] | Antitumor activity value (A) Administration amount of test compound at which tumor enhancement is inhibited by 50% compared with that of control group (Sarcoma 180 [1]; Table 1-b) [mg/kg/day] | Therapeutic index (C) = (B)/(A) (Sarcoma 180 [2]; Table 1-b) | TD50 at 240 h ([3]; Table 1-b) [mg/kg] | also measured
O=c1[nH]c(=O)n([C@H]2C[C@H](O)[C@@H](COCc3ccc(Cl)cc3)O2)cc1C(F)(F)F [Compound 11] | 18 | 1.22 | 22 | – | – | – | –
O=c1[nH]c(=O)n([C@H]2C[C@H](OCc3ccc(Cl)cc3)[C@@H](CO)O2)cc1C(F)(F)F [Compound 12] | 12 | 1.42 | 17 | – | – | – | –
Cc1ccccc1COC[C@H]1O[C@@H](n2cc(C(F)(F)F)c(=O)[nH]c2=O)C[C@@H]1O [Compound 13, 2'-deoxy-5'-O-(2-methylbenzyl)-5-trifluoromethyluridine] | 48 | 1.35 | 65 | – | – | – | –
Cc1ccccc1CO[C@H]1C[C@H](n2cc(C(F)(F)F)c(=O)[nH]c2=O)O[C@@H]1CO [Compound 14] | 40 | 1.43 | 57 | – | – | – | –
Cc1cccc(COC[C@H]2O[C@@H](n3cc(C(F)(F)F)c(=O)[nH]c3=O)C[C@@H]2O)c1 [Compound 15, 2'-deoxy-5'-O-(3-methylbenzyl)-5-trifluoromethyluridine] | 24 | 1.71 | 41 | – | – | – | –
Cc1cccc(CO[C@H]2C[C@H](n3cc(C(F)(F)F)c(=O)[nH]c3=O)O[C@@H]2CO)c1 [Compound 16, 2'-deoxy-3'-O-(3-methylbenzyl)-5trifluoromethyluridine] | 31 | 1.45 | 45 | – | – | – | –
COc1ccc(COC[C@H]2O[C@@H](n3cc(C(F)(F)F)c(=O)[nH]c3=O)C[C@@H]2O)cc1 [Compound 17] | 45 | 1.13 | 51 | – | – | – | –
COc1ccc(CO[C@H]2C[C@H](n3cc(C(F)(F)F)c(=O)[nH]c3=O)O[C@@H]2CO)cc1 [Compound 18, 2'-deoxy-3'-O-(4-methoxybenzyl)-5-trifluoromethyluridine] | 52 | 1.15 | 60 | – | – | – | –
O=c1c(C(F)(F)F)cn([C@H]2C[C@H](O)[C@@H](COCc3ccccc3)O2)c(=O)n1C1CCCO1 (stereo partly shown) [Compound 21, 3-(2-tetrahydrofuranyl)-2'-deoxy-5'-O-benzyl-5-trifluoromethyluridine] | 22 | 1.36 | 30 | – | – | – | –
CCOC[C@H]1O[C@@H](n2cc(C(F)(F)F)c(=O)n(C(=O)c3ccccc3)c2=O)C[C@@H]1O [Compound 24, 3-benzoyl-2'-deoxy-5'-O-ethyl-5-trifluoromethyluridine] | – | – | – | 26 | 1.38 | 36 | –
CCO[C@H]1C[C@H](n2cc(C(F)(F)F)c(=O)n(C(=O)c3ccccc3)c2=O)O[C@@H]1CO [Compound 25, 3-benzoyl-2'-deoxy-3'-O-ethyl-5-trifluoromethyluridine] | – | – | – | 38 | 0.82 | 31 | –
CCCCOC[C@H]1O[C@@H](n2cc(C(F)(F)F)c(=O)n(C(=O)c3ccccc3)c2=O)C[C@@H]1O [Compound 26] | – | – | – | 50 | 1.48 | 74 | –
O=C(c1ccccc1)n1c(=O)c(C(F)(F)F)cn([C@H]2C[C@H](O)[C@@H](COCc3ccccc3)O2)c1=O [Compound 27, 3-benzoyl-5'-O-benzyl-2'-deoxy-5-trifluoromethyluridine] | – | – | – | 25 | 1.40 | 35 | –
O=C(c1ccccc1)n1c(=O)c(C(F)(F)F)cn([C@H]2C[C@H](OCc3ccccc3)[C@@H](CO)O2)c1=O [Compound 28, 3-benzoyl-3'-O-benzyl-2'-deoxy-5-trifluoromethyluridine] | – | – | – | 25 | 1.40 | 35 | –
COC[C@H]1O[C@@H](n2cc(C(F)(F)F)c(=O)[nH]c2=O)C[C@@H]1O [Compound 29] | – | – | – | 48 | 1.50 | 72 | –
CCOC[C@H]1O[C@@H](n2cc(C(F)(F)F)c(=O)[nH]c2=O)C[C@@H]1O [Compound 30, 2'-deoxy-5'-O-ethyl-5-trifluoromethyluridine] | – | – | – | 19 | 1.68 | 32 | –
CCO[C@H]1C[C@H](n2cc(C(F)(F)F)c(=O)[nH]c2=O)O[C@@H]1CO [Compound 31, 2'-deoxy-3'-O-ethyl-5-trifluoromethyluridine] | – | – | – | 20 | 1.50 | 30 | –
O=c1[nH]c(=O)n([C@H]2C[C@H](O)[C@@H](COCc3ccccc3)O2)cc1C(F)(F)F [Compound 32, 2'-deoxy-5'-O-benzyl-5-trifluoromethyluridine] | – | – | – | 19 | 1.79 | 34 | –
O=c1[nH]c(=O)n([C@H]2C[C@H](OCc3ccccc3)[C@@H](CO)O2)cc1C(F)(F)F [Compound 33, 3'-O-benzyl-2'-deoxy-5-trifluoromethyluridine] | – | – | – | 17 | – | 32 | –
CCOC[C@H]1O[C@@H](n2cc(F)c(=O)n(C(=O)c3ccccc3)c2=O)C[C@@H]1O [Compound 35, 3-benzoyl-2'-deoxy-5'-O-ethyl-5-fluorouridine] | – | – | – | – | – | – | Antitumor activity value (A) Administration amount of test compound at which tumor enhancement is inhibited by 50% compared with that of control group (Sarcoma 180 [1]; Table 1-c): 51 mg/kg/day; Therapeutic index (C) = (B)/(A) (Sarcoma 180 [2]; Table 1-c): 1.37; TD50 at 240 h ([3]; Table 1-c): 70 mg/kg
CCOC[C@H]1O[C@@H](n2cc(F)c(=O)[nH]c2=O)C[C@@H]1O [Compound 39] | – | – | – | – | – | – | Antitumor activity value (A) Administration amount of test compound at which tumor enhancement is inhibited by 50% compared with that of control group (Sarcoma 180 [1]; Table 1-c): 28 mg/kg/day; Therapeutic index (C) = (B)/(A) (Sarcoma 180 [2]; Table 1-c): 2.39; TD50 at 240 h ([3]; Table 1-c): 67 mg/kg
O=c1[nH]c(=O)n([C@H]2C[C@H](OCc3ccccc3)[C@@H](CO)O2)cc1F [Compound 40, 2'-deoxy-3'-O-benzyl-5-fluorouridine] | – | – | – | – | – | – | Antitumor activity value (A) Administration amount of test compound at which tumor enhancement is inhibited by 50% compared with that of control group (Sarcoma 180 [1]; Table 1-c): 17 mg/kg/day; TD50 at 240 h ([3]; Table 1-c): 35 mg/kg
